Experimental data published in patent US12280063B2, “Anti-retroviral therapies and reverse transcriptase inhibitors for treatment of Alzheimer's disease” (Sanford Burnham Prebys Medical Discovery Institute, priority 2018, dated 2025).

Legend:
[1] = system: APP gencDNAs in CHO cells; assay: Induction of APP gencDNAs in APP 751-transfected CHO cells treated with hydrogen peroxide, genomic DNA PCR; type: cell-based; settings: AZT 100 μM and ABC 10 μM given together, APP 751 transfection, hydrogen peroxide 0, 5 or 50 μM, FIG. 20B
Method: The method is graphically represented in FIG. 20A. CHO cells were serum-deprived for 2 days, followed by addition of reverse transcriptase (RT) inhibitors azidothymidine (AZT, 100 μM) and abacavir (ABC, 10 μM) (Tocris, Minneapolis, Minn.) until the end of the experiment. Medium was changed daily with fresh RT inhibitors. Cells were transfected with APP 751 by GenJet (SignaGen Laboratories, Gaithersburg, Md.) on day 3, then on day 4 cells were treated with 0 μM, 5 μM, or 50 μM of hydrogen peroxide (Fisher Scientific) for 2 hrs. After 1 day, cells were collected and genomic DNA was extracted for PCR analysis.

[2] = system: reverse transcriptase activity in CHO cell lysate; assay: In vitro reverse transcriptase activity assay in CHO cell lysate; type: biochemical; settings: four independent experiments, FIG. 20E, read-out: IC50, decrease of reverse transcriptase activity
Method: In one example, lysates were prepared in reverse transcriptase disruption buffer and contained Complete™, EDTA-free Protease Inhibitor Cocktail (Sigma-Aldrich, St. Louis, Mo.) and PhosSTOP™ phosphatase inhibitors (Sigma-Aldrich, St. Louis, Mo.). One microgram of extract was used in the reverse transcription step of the assay. Reverse transcription was carried out at 37° C. for 45 min, followed by 15 min at 70° C. The RT product of this first step was assayed in triplicate by quantitative PCR. Levels of reverse transcription activity were determined by the Delta Cq method, compared to the activity in negative controls (water and no nucleotides) that were given Cq scores of 40. 1×10^5 picounits of SuperScript™ II Reverse Transcriptase (ThermoFisher Scientific) were used as a positive control for the assay. Lysates for heat inactivation experiments were incubated for 15 min at 70° C. prior to the reverse transcription step. For inhibitor experiments, lysates were incubated with inhibitor in the presence of all the components of the reaction except for dNTPs. After 10 min at room temperature, dNTPs were added and the reaction was incubated at 37° C. as above. AZT-TP was purchased from TriLink Biotechnologies (San Diego, Calif.).
In another example, the in vitro reverse transcriptase activity assay was conducted with reagents and protocol as shown in Tables 8-11.

Row | Molecule | production of APP gencDNAs under nucleoside reverse transcriptase inhibitors [1] | IC50 [2]
1 | Nc1nc(NC2CC2)c2ncn([C@H]3C=C[C@@H](CO)C3)c2n1 [abacavir] | also required to produce gencDNAs | 
2 | azidothymidine triphosphate [AZT-TP] |  | 18.5 µM
